The values below come from ChEMBL document CHEMBL5131473, “One-pot synthesis of oxoaporphines as potent antitumor agents and investigation of their mechanisms of actions” (Eur J Med Chem, 2022).

A short description of data set [1]: Toxicity in human WI-38 cells assessed as wound closure at 5 uM measured after 24 hrs by fluorescence microscopy based wound healing assay. The settings on record: wi-38, 24 h. It counts as cell-based.
The subject of data set [2] is T-24. The data set can be described thus: Induction of mitochondrial membrane potential dysfunction in human T24 cells assessed as depolarised cells at 10 uM incubated for 24 hrs by JC-1 staining based flow cytometry (reference value: 6.20%). It counts as functional.
The subject of data set [3] is T-24. Put plainly: Induction of mitochondrial membrane potential dysfunction in human T24 cells assessed as depolarised cells at 15 uM incubated for 24 hrs by JC-1 staining based flow cytometry (reference value: 6.20%). It counts as functional. A general note: Flow cytometry measures light scatter and fluorescence of single cells or particles in a stream.
In data set [4] the test system is T-24. Put plainly: Induction of mitochondrial membrane potential dysfunction in human T24 cells assessed as decrease in ATP production at 15 uM. It counts as functional. Further details: scale not given: the % may be the effect or the level left.
Data set [5] concerns T-24. The data set can be described thus: Induction of mitochondrial membrane potential dysfunction in human T24 cells assessed as shrinking mitochondria at 10 uM incubated for 24 hrs by TEM analysis. The class given is functional, cell-based.
The test system of data set [6] is T-24. The data set can be described thus: Induction of mitochondrial Ca2+ production in human T24 cells assessed as increase in intracellular Ca2+ concentration at 10 uM by Rhod2-AM staining based fluorescence microscopic method. The class given is functional, cell-based.
The subject of data set [7] is T-24. Put plainly: Induction of cell cycle arrest in human T24 cells assessed as accumulation of cells at G2/M phase at 10 uM incubated for 24 hrs by propidium iodide/RNase A staining based flow cytometry analysis (reference value: 5.82 %). The class given is functional.
Data set [8] relates to T-24. The data set can be described thus: Induction of cell cycle arrest in human T24 cells assessed as accumulation of cells at S phase at 10 uM incubated for 24 hrs by propidium iodide/RNase A staining based flow cytometry analysis (reference value: 42.47 %). It counts as functional.
The subject of data set [9] is T-24. Put plainly: Induction of cell cycle arrest in human T24 cells assessed as accumulation of cells at G1 phase at 15 uM incubated for 24 hrs by propidium iodide/RNase A staining based flow cytometry analysis (reference value: 51.71 %). It counts as functional.
Data set [10] relates to T-24. Put plainly: Induction of apoptosis in human T24 cells assessed as viable cells at 15 uM incubated for 24 hrs by Annexin-V/PI staining based flow cytometry analysis (reference value: 94.3 %). The settings on record: read-out: Activity. It counts as functional.
Data set [11] concerns T-24. The data set can be described thus: Induction of DNA damage in human T24 cells assessed as increase in […] p53 expression at 2 to 4 uM incubated for 24 hrs by Western blot analysis. The class given is functional, cell-based. The settings on record: dose 2-4 µM.
For data set [12], the system named is T-24. Put plainly: Inhibition of cell migration in human T24 cells assessed as recovery of wound area at 1 uM measured after 24 hrs by wound healing assay based fluorescence microscopy. The class given is functional. Also on record: scale not given: the % may be the effect or the level left.
The subject of data set [13] is T-24. Put plainly: Induction of DNA damage in human T24 cells assessed as DNA strand breakage by measuring comet formation at 2 uM incubated for 24 hrs by comet assay. It counts as functional, cell-based.
Data set [14] has as its system T-24. The data set can be described thus: Induction of mitochondrial mediated apoptosis in human T24 cells assessed as decrease in Bcl-2 protein expression at 2 to 4 uM incubated for 24 hrs by Western blotting analysis. It counts as functional, cell-based. Particulars: dose 2-4 µM. (In general: A western blot detects proteins with antibodies after separation by electrophoresis.)

The test system of data set [15] is T-24. The data set can be described thus: Induction of mitochondrial mediated apoptosis in human T24 cells assessed as increase in Bak protein expression at 2 to 4 uM incubated for 24 hrs by Western blotting analysis. The class given is functional, cell-based. The settings on record: dose 2-4 µM.
Data set [16] deals with T-24. Put plainly: Induction of ROS accumulation in human T24 cells assessed as increase in intracellular ROS level at 2 uM by […] based flow cytometry. It counts as functional, cell-based.
For data set [17], the system named is T-24. Put plainly: Induction of ROS generation in human T24 cells at 2 uM by fluorescence microscopy. It counts as functional, cell-based.
For data set [18], the system named is T-24. Put plainly: Induction of mitochondrial ROS generation in human T24 cells at 2 uM measured after 24 hrs by Mitotracker Red dye based confocal microscopy method. The class given is functional, cell-based.
The subject of data set [19] is T-24. Put plainly: Induction of Ca2+ production in human T24 cells assessed as increase in intracellular Ca2+ concentration at 2 uM by Fluo3-AM staining based fluorescence microscopic method. The class given is functional, cell-based.
The subject of data set [20] is T-24. The data set can be described thus: Induction of mitochondrial Ca2+ production in human T24 cells assessed as increase in intracellular Ca2+ concentration at 2 uM by Rhod2-AM staining based fluorescence microscopic method. The class given is functional, cell-based.
Data set [21] has as its system T-24. Put plainly: Induction of apoptosis in human T24 cells assessed as increase in caspase 9 activity at 4 uM (Rvb= 7.2%). It counts as functional.
In data set [22] the test system is T-24. Put plainly: Induction of apoptosis in human T24 cells assessed as viable cells at 4 uM incubated for 24 hrs by Annexin-V/PI staining based flow cytometry analysis (reference value: 94.3 %). It counts as functional. Particulars: read-out: Activity.
For data set [23], the system named is T-24. The data set can be described thus: Induction of mitochondrial membrane potential dysfunction in human T24 cells assessed as mitochondrial fragment condensation at 2 to 4 uM by mito-tracker green dye based fluorescence microscopy. The class given is functional, cell-based. The settings on record: dose 2-4 µM.
The test system of data set [24] is T-24. Put plainly: Induction of mitochondrial membrane potential dysfunction in human T24 cells assessed as nuclear condensation at 2 to 4 uM by mito-tracker green dye based fluorescence microscopy. It counts as functional, cell-based. Particulars: dose 2-4 µM.
In data set [25] the test system is T-24. The data set can be described thus: Induction of DNA damage in human T24 cells assessed as increase in gamma H2AX phosphorylation at 0.5 uM incubated for 24 hrs by Hoechst33258 staining based immunofluorescence assay. The class given is functional, cell-based.
Data set [26] relates to T-24. The data set can be described thus: Induction of apoptosis in human T24 cells assessed as condensation of nuclei at 0.5 uM by Hoechst33258 staining based fluorescence microscopy. It counts as functional, cell-based.
In data set [27] the test system is T-24. Put plainly: Induction of mitochondrial membrane potential dysfunction in human T24 cells assessed as depolarised cells at 1 uM incubated for 24 hrs by JC-1 staining based flow cytometry (reference value: 6.20%). It counts as functional.
Data set [28] deals with T-24. The data set can be described thus: Induction of mitochondrial membrane potential dysfunction in human T24 cells assessed as change in morphology at 0.5 to 1 uM by Mitotracker green dye based fluorescence microscopy. It counts as functional, cell-based. Particulars: dose 0.5-1 µM.
The subject of data set [29] is T-24. The data set can be described thus: Induction of mitochondrial mediated apoptosis in human T24 cells assessed as decrease in Bcl-2 protein expression at 0.5 to 1 uM incubated for 24 hrs by Western blotting analysis. The class given is functional, cell-based. Particulars: dose 0.5-1 µM.
In data set [30] the test system is T-24. Put plainly: Induction of mitochondrial ROS generation in human T24 cells at 0.5 uM measured after 24 hrs by DCFH-DA staining based confocal microscopy method. It counts as functional, cell-based.
The test system of data set [31] is T-24. The data set can be described thus: Induction of apoptosis in human T24 cells assessed as increase in caspase 9 activity at 0.5 uM (Rvb= 7.2%). It counts as functional.
Data set [32] deals with T-24. The data set can be described thus: Induction of apoptosis in human T24 cells assessed as increase in caspase 9 activity at 1 uM (Rvb= 7.2%). It counts as functional.
For data set [33], the system named is T-24. Put plainly: Induction of cell cycle arrest in human T24 cells assessed as accumulation of cells at G1 phase at 0.5 uM incubated for 24 hrs by propidium iodide/RNase A staining based flow cytometry analysis (reference value: 51.71 %). The class given is functional.
Data set [34] concerns T-24. Put plainly: Induction of apoptosis in human T24 cells assessed as necrotic cells at 0.5 uM incubated for 24 hrs by Annexin-V/PI staining based flow cytometry analysis (reference value: 1.92 %). It counts as functional.
Data set [35] has as its system T-24. Put plainly: Induction of apoptosis in human T24 cells assessed as late apoptotic cells at 0.5 uM incubated for 24 hrs by Annexin-V/PI staining based flow cytometry analysis (reference value: 0.543 %). It counts as functional.
Data set [36] has as its system T-24. Put plainly: Induction of apoptosis in human T24 cells assessed as late apoptotic cells at 1 uM incubated for 24 hrs by Annexin-V/PI staining based flow cytometry analysis (reference value: 0.543 %). The class given is functional.
The test system of data set [37] is T-24. Put plainly: Induction of mitochondrial membrane potential dysfunction in human T24 cells assessed as mitochondrial fragment condensation at 0.5 to 1 uM by mito-tracker green dye based fluorescence microscopy. Particulars: dose 0.5-1 µM. The class given is functional, cell-based.

Calls of active or inactive are those of the source. The calls are words filed in the database; no cut-off is given here.

In the case of `O=C1c2ccccc2-c2cccc3ccnc1c23`, the Activity result is recorded as “Non-Toxic” in [1]; 11.7% in the data set on T-24 [2]; 25.6% with T-24 [3]; 66.2% in the data set with T-24 [4]; 13.69% in the data set on T-24 [7]; 54.86% in the data set on T-24 [8]. Besides, the Activity with T-24 [9] came out at 31.02%. Further, the outcome in the data set on T-24 [5] and in the data set with T-24 [6] was Active. The viability at 15 µM with T-24 [10] was determined as 58%.

On to `O=C1c2cc([N+](=O)[O-])ccc2-c2ccc([N+](=O)[O-])c3ccnc1c23`, for which the outcome with T-24 [11], with T-24 [13], in the data set with T-24 [14], in the data set with T-24 [15], in the data set on T-24 [16] and in the data set with T-24 [17] was Active. Moreover, the result with T-24 [18], in the data set with T-24 [19], in the data set with T-24 [20], in the data set on T-24 [23] and with T-24 [24] was Active. The Activity in the data set on T-24 [12] is listed as 20.1%; in the data set on T-24 [21], 28.9%. Moreover, in the data set on T-24 [22], the viability at 4 µM turned out to be 59.4%.

With `O=C1c2ccccc2-c2ccc([N+](=O)[O-])c3ccnc1c23`, the result in the data set with T-24 [25], with T-24 [26], with T-24 [28], in the data set with T-24 [29], in the data set on T-24 [30] and in the data set with T-24 [37] was Active. Besides, the Activity in the data set with T-24 [27] came out at 44.5%; in the data set on T-24 [31], 26.9%; in the data set on T-24 [32], 53.6%; in the data set with T-24 [33], 0.58%; with T-24 [34], 1.54%; in the data set with T-24 [35] it was 5.1%. Also, in the data set on T-24 [36], the Activity is 6.25%.
